Calls of active or inactive are those of the source.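 How the source made its calls: active means fitted curve reaching 40% activation at or below the top valid dose tested; inconclusive means flat curve at 30 to 70% activation, or poor fit; inactive means the rest.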
Test system: SK-MEL-5 TRPM1 promoter luciferase reporter, 24 h
Experiment: MITF activators via TRPM1 promoter reporter, dose response, SK-MEL-5 cells, luciferase, cherry-pick samples (AID 540258);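 further: potency for activators that raise TRPM1 promoter luciferase signal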

Point of comparison: CCc1nc2oc3ccccc3c(=O)c2cc1C(=O)OC, AC40 5700 nM. Against it:
- Cc1ccc(NC(=O)C(=O)NCc2ccccn2)cc1 — 2.9-fold higher, 16400 nM
- COC(=O)c1cc(-c2ccc(OC)cc2)n[nH]1 — within 1.5-fold, 6210 nM
- Cc1nc2c3cnn(-c4ccc(C)c(C)c4)c3ncn2n1 — 6.2-fold lower, 921 nM
- Cc1ccc(N(C)/N=C/c2ccc(Cl)cc2Cl)nn1 — 6-fold higher, 34200 nM
- Cc1ccc(NC(=O)Nc2ccc3c(c2)OCO3)c(OC(F)F)c1 — 2.7-fold lower, 2140 nM
- Cc1ccc(-c2csc(NC(=O)c3ccc(Br)cc3)c2C(=O)O)cc1 — within 1.5-fold, 6100 nM
- COc1ccc(-c2cc(=NCCC(=O)O)c3cc(C)ccc3o2)cc1 — 1.7-fold lower, 3330 nM
- Cc1csc(NC(=O)Cc2c[nH]c3ccccc23)n1 — 4.8-fold higher, 27300 nM
- N#Cc1ccc(C(=O)NC2CCCCCCC2)cc1 — 1.6-fold lower, 3620 nM
- Cc1ccc(Nc2nnc(-c3ccccc3N)o2)cc1C — 3.6-fold lower, 1590 nM
- CC(Cc1ccccc1)/[N+]([O-])=C\c1ccc(C(F)(F)F)cc1 (configuration not stated) — within 1.5-fold, 8220 nM
- CSc1ccccc1OCc1cc(C(=O)N[C@H]2CCCCNC2=O)no1 — 2.6-fold lower, 2220 nM
- Cc1ccccc1S(=O)(=O)Oc1ccc2ccc(O)cc2c1 — 4.5-fold higher, 25700 nM
- COc1ccc(C(=O)c2c[nH]c3ccccc23)cc1 — 2.2-fold lower, 2640 nM
- Cc1cccc(OC(=O)c2sc3ncn(C)c(=O)c3c2C)c1 — within 1.5-fold, 6160 nM
- Cc1cc(NC(=O)c2ccc(Cl)cc2)no1 — 2.2-fold lower, 2630 nM
- O=C(NCCc1cccs1)c1ccc(Cl)c(Cl)c1 — 1.6-fold lower, 3470 nM
- COc1ccc(C(=O)CN2Cc3ccccc3C2=N)cc1 — within 1.5-fold, 4860 nM
- O=C(Cc1ccccc1)Nc1ccc2c(c1)OC1(CCCC1)O2 — 1.8-fold lower, 3230 nM
- O=c1c2c(nc3cc(-c4ccc(Br)cc4)[nH]n13)CCCC2 — 20-fold lower, 286 nM
- O=C(Nc1ccc2c(c1)CCC2)C1CCCN(c2ncccn2)C1 (configuration not stated) — 1.6-fold lower, 3540 nM
- O=C(Cn1c(/C=C/c2ccccc2)nc2ccccc21)Nc1ccc(F)cc1 — within 1.5-fold, 6450 nM
- COc1ccc(/C=N/Nc2nccnc2Cl)c(OC)c1 — 2.1-fold lower, 2680 nM
- COc1ccc2c(c1)CC/C(=C\Nc1ccc3c(c1)OCO3)C2=O — 2.5-fold lower, 2300 nM
- O=C(Nc1cccc(F)c1)NC1CCCCCCC1 — within 1.5-fold, 6520 nM
- Cn1cc(Br)c(C(=O)N/N=C/c2cc3c(cc2Cl)OCO3)n1 — 1.7-fold higher, 9650 nM
- CC(=O)c1sc(NC(=O)c2ccc3c(c2)OCO3)nc1C — 4.1-fold lower, 1390 nM
- Cc1ccc(NC(=O)c2ccc3ccccc3n2)cc1S(=O)(=O)N(C)C — 2.4-fold lower, 2370 nM
- Cc1nc(-c2ccc(NC(=O)c3ccccc3Br)cc2)cs1 — 3.6-fold lower, 1570 nM
- COc1cccc(C(=O)Nc2nnc(-c3ccccc3)s2)c1 — 1.6-fold lower, 3570 nM
- c1ccc(COc2ccc(-c3csnn3)cc2)cc1 — 6.4-fold lower, 889 nM
- CNC(=O)c1ccc(-c2cc3onc(-c4ccccc4)c3c(=O)n2C)cc1 — within 1.5-fold, 6960 nM
- Cc1nn(-c2ccccn2)c2c1-c1nc(N)ncc1CC2 — 2.4-fold lower, 2380 nM
- CC(C)CNC(=O)C1CCN(Cc2ccc(OCc3ccccc3)cc2)CC1 — 3.6-fold higher, 20600 nM
- COc1ccc(-c2csc(-n3cccn3)n2)cc1 — 5.2-fold lower, 1100 nM
- CCCC(=O)N1c2ccc(-c3csc(N)n3)cc2CC1C (configuration not stated) — 3.5-fold lower, 1650 nM
- CSc1nc(N)n2nc(-c3ccc(Cl)cc3)cc2n1 — 7.8-fold lower, 727 nM
- CC(C)(C)C(=O)c1sc(Nc2ccccc2)nc1N — 3.4-fold lower, 1680 nM
- Cc1cc(CNC(=O)c2cc(COc3ccc(F)c(F)c3)on2)nn1C — 1.7-fold lower, 3370 nM
- COc1ccc2c(c1)CCc1c(C(=O)NCC(C)C)noc1-2 — 6.6-fold lower, 867 nM
- Cc1ccc(-c2nn(-c3ccccc3)cc2/C=N/O)cc1 — 1.8-fold higher, 10200 nM
- COC(=O)c1ccc(N=NN2CCCCC2)cc1 — 4.3-fold lower, 1340 nM
- Cn1c(C(=O)NCCc2c[nH]c3ccccc23)cc2sccc21 — 1.7-fold lower, 3400 nM
- CSc1ccc(-c2nnn(Cc3ccc(C)cc3)n2)cc1 — within 1.5-fold, 5080 nM
- Cc1ccccc1-c1nc2cc(Cl)ccc2o1 — 1.5-fold higher, 8560 nM
- O=C(Nc1ccccc1)N1CCC(c2ccccc2)C1 (configuration not stated) — 3.2-fold lower, 1800 nM
- COc1ccc2c(c1OC)C(=O)N1c3ccccc3COC21 (configuration not stated) — 6-fold lower, 955 nM
- CCc1nc(NC(C)(C)C)c2cnn(-c3ccccc3)c2n1 — within 1.5-fold, 6250 nM
- COc1ccc2c(c1OC)C(=O)N(c1ccc(C)cc1)C2 — 2.2-fold higher, 12300 nM
- CC(C)c1ccc(CNc2ncc(Br)cn2)cc1 — 1.5-fold lower, 3760 nM
- C=CCSc1nncn1/N=C/c1ccc(OC)cc1 — 4-fold lower, 1410 nM
- COC(=O)Cc1ccc(NC(=O)c2ccc(C)c(C)c2)cc1 — 3.8-fold lower, 1490 nM
- COC(=O)c1ccc(N2CCN(c3ccccc3)CC2)nc1 — within 1.5-fold, 3850 nM
- CCCCSc1nsc(NC(C)=O)n1 — 4.5-fold lower, 1280 nM
- Nc1c(C(=O)N2CCCC2)sc2nc(-c3ccccc3)ccc12 — within 1.5-fold, 6190 nM
- COc1nc(C)ccc1-c1noc(-c2ccncc2)n1 — 2.1-fold lower, 2670 nM
- COC(=O)c1ccc(Nc2ncnc3sccc23)cc1 — within 1.5-fold, 7470 nM
- O=C(NCCSc1ccccn1)c1ccc(Cl)cc1Cl — 5.9-fold lower, 959 nM
- COc1ccccc1N1CCN(C2=Nc3cccc4cccc2c34)CC1 — 1.9-fold lower, 3000 nM
- CNC(=O)C(=O)Nc1nc(C23CC4CC(CC(C4)C2)C3)cs1 — 2.9-fold higher, 16600 nM
- Cc1cc(C)c(NN=c2c(=O)c3ccccc3c2=O)c(C)c1 — 11-fold lower, 531 nM
- CCS(=O)(=O)N1CCN(c2nc(-c3ccccc3)cs2)CC1 — 5.8-fold higher, 33300 nM
- Nc1c(-c2ccc(Cl)cc2)cnn1-c1ccccc1 — 3.1-fold lower, 1840 nM
- Cc1ccnc(NC(=O)C2CC(=O)N(Cc3ccccc3)C2)c1 (configuration not stated) — within 1.5-fold, 5340 nM
- Cc1nc2ccc(NC(=O)Cc3c(F)cccc3Cl)cc2s1 — 1.6-fold lower, 3660 nM
- Cc1snc2sc(C(=O)c3ccc(Br)cc3)c(N)c12 — 3.9-fold lower, 1480 nM
- Cn1ccs/c1=N\C(=O)Nc1ccccc1 — 3.6-fold lower, 1590 nM
- COc1ccc(-c2cn(CC3CCCCC3)nn2)cc1 — 1.6-fold lower, 3610 nM
- COc1ccc(C)c2sc(=NC(=O)c3ccc(C(C)=O)cc3)n(C)c12 — 48-fold lower, 119 nM
- COCc1nn2c(N)c(-c3ccccc3)cnc2c1-c1ccccc1 — 2.2-fold lower, 2620 nM
- O=C(Cc1ccc(O)cc1)NC1CCCCCC1 — 1.9-fold higher, 10600 nM
- Cc1ccc(-c2noc(C3CCCCC3)n2)cc1 — 3.4-fold lower, 1680 nM
- CCc1ccc(N2Cc3ccccc3C2)cc1 — 2.5-fold lower, 2250 nM
- Cc1[nH]n(-c2cccc(Cl)c2)c(=O)c1C=NCC(C)C — within 1.5-fold, 5250 nM
- COc1ccc(NC(=O)c2ccc3c(c2)OCO3)cc1Cl — 8.9-fold lower, 642 nM
- Cc1cccc2c1-c1sc(C(=O)N3CCCCC3)cc1CO2 — 2.1-fold lower, 2700 nM
- COc1cc(C=O)ccc1OCc1cccc(Br)c1 — within 1.5-fold, 5930 nM
- c1ccc2nc(-c3nccs3)ccc2c1 — 1.6-fold higher, 8940 nM
- Cc1cccc(Nc2nc3c(s2)CCCC3)c1 — 5.7-fold lower, 993 nM
- Cc1ccc(CSc2ccc(-c3cccs3)nn2)cc1 — 2.1-fold lower, 2710 nM
- COc1ccccc1NC(=O)Nc1ccc(C(=O)N2CCCCC2)cc1 — 2.9-fold higher, 16600 nM
- CSc1cccc(NC(=O)c2cnn3ccccc23)c1 — 5.5-fold lower, 1040 nM
- Cc1nc(N2CCN(S(=O)(=O)c3ccccc3)CC2)c2cc(-c3ccccc3)sc2n1 — 4-fold higher, 22900 nM
- CSCc1ccc(C(=O)Nc2cc(C)cc(C)c2)cc1 — 2-fold lower, 2810 nM
- COC(=O)C1CCc2c(ccc3c2CCCC3)C1=O (configuration not stated) — 2.8-fold lower, 2030 nM
- CC(C)(C)n1ncc2c(=O)n(CC(=O)c3ccccc3)cnc21 — 2-fold lower, 2870 nM
- CCN=c1scc(-c2ccc(F)cc2)n1/N=C/c1ccccn1 — 7.1-fold lower, 798 nM
- Cc1cccc(C(=O)Oc2ccc(/C=N/O)cc2)c1 — 2.1-fold lower, 2740 nM
- C/C(=C\c1ccc(N)cc1)c1nc2ccccc2[nH]1 — 3.3-fold lower, 1720 nM
- Cc1nn(CC(C)C)c(Cl)c1C(=O)NC1CCC(C)CC1 (configuration not stated) — 2.2-fold lower, 2630 nM
- COc1cccc2[nH]c(=O)c(-c3ccccc3)cc12 — 3.3-fold lower, 1720 nM
- Nc1ccccc1N=Nc1ccccc1N — 4.7-fold higher, 27000 nM
- CSc1nccc(N/N=C/c2ccccc2)n1 — 12-fold lower, 491 nM
- CCN1CCN(c2cc3c(nn2)Oc2ccccc2N3C)CC1 — within 1.5-fold, 5840 nM
- Clc1ccc(SCc2cn3ccccc3n2)cc1 — 2.1-fold lower, 2690 nM
- Clc1ccc(-c2nnc(CCc3ccccc3)o2)c(Cl)c1 — 2.2-fold lower, 2550 nM
- Cc1ccn(-c2cccc(-n3ccc(C)n3)n2)n1 — 6.8-fold lower, 834 nM
- c1ccc2c(c1)NC1(CCCC1)n1c-2nc2ccccc21 — 2-fold higher, 11300 nM
- Cc1ccc(C(=O)Nc2ncccc2S(=O)(=O)c2ccccc2)cc1 — 1.9-fold lower, 2940 nM
- COc1ccccc1-c1cnn2c(NC3CCCC3)cc(C)nc12 — within 1.5-fold, 4090 nM
- Oc1ccc(N=Nc2ccccc2)cc1 — within 1.5-fold, 3980 nM
- Cc1ccnc(NC(=O)c2ccc(S(=O)(=O)N3CCC(C)CC3)cc2)c1 — within 1.5-fold, 7760 nM
- COc1ccc(-c2noc(-c3cccc(OC)c3OC)n2)cc1OC — 4.3-fold lower, 1330 nM
- c1ccc(-c2cnnc(N3CCCCC3)n2)cc1 — 5.7-fold lower, 992 nM
- Cc1ccsc1C(=O)OCc1nnc(-c2ccccc2)o1 — within 1.5-fold, 7440 nM
- COc1ccc2cc(C(N)=O)c(=Nc3ccccc3)oc2c1 — within 1.5-fold, 4540 nM
- Cc1cccc2nc(COc3ccc4ccccc4c3Br)cn12 — 4.5-fold lower, 1270 nM
- COc1ccc(/C=C2\OC(=O)c3c(OC)cccc32)cc1OC — 5.7-fold lower, 998 nM
- COc1ccccc1C(=O)NCC(=O)Nc1ccc2c(c1)CCC2 — 2.4-fold lower, 2420 nM
- COc1ccc(-c2c(C)nc3c(-c4ccsc4)cnn3c2N)cc1 — 19-fold lower, 302 nM
- Nc1ccc(-c2nnc(-c3ccc(N)cc3)o2)cc1 — 2.3-fold lower, 2450 nM
- COc1ccc(/C=C2\CCn3c2nc2ccccc2c3=O)cc1OC — 6.3-fold lower, 899 nM
- Brc1ccc(OCc2cn3ccccc3n2)cc1 — 9.6-fold lower, 592 nM
- O=C(Nc1ccccc1)O/N=C/c1ccc(F)cc1 — 6.5-fold lower, 883 nM
- CC1CCC(NC(=O)c2cc3ccccc3cc2O)CC1 (configuration not stated) — 2.2-fold lower, 2640 nM
- CCC(=O)N1CCc2nc(-c3ccccc3)sc2C1 — within 1.5-fold, 6730 nM
- COc1ccc(Br)c(C(=O)Nc2nc3ccccc3[nH]2)c1 — within 1.5-fold, 4940 nM
- O=C(Nc1ccc(O)cc1)c1cc2ccccc2c(=O)s1 — 2.5-fold lower, 2300 nM
- COC(=O)c1ccc(/C=N/Nc2nc(C)c(C)s2)cc1 — 3.8-fold lower, 1500 nM
- COc1ccc(/C=C2\SC(=O)N(CCNC(=O)C3CC4C=CC3C4)C2=O)cc1 (configuration not stated) — 4.1-fold lower, 1390 nM
- c1ccc(-c2nc3ccccc3[nH]2)cc1 — 3.1-fold lower, 1810 nM
- COc1ccc(-c2ccc(C(=O)C3CC3)cc2)cc1 — 7.4-fold lower, 775 nM
- O=c1c(-c2ccc(O)cc2)coc2cc(O)cc(O)c12 — within 1.5-fold, 4480 nM
- CCC(=O)Nc1ccc(-c2ccc(N3CCC(C)CC3)nn2)cc1 — within 1.5-fold, 4630 nM
- O=C(CCNc1ccccc1)c1ccc2c(c1)OCO2 — 5.1-fold lower, 1120 nM
- C=CCNC(=O)c1ccc2nc(Cc3ccc(OC)cc3)oc2c1 — 2.4-fold lower, 2370 nM

With Cn1c(-c2ncc(F)cc2F)cc2onc(-c3c(F)cccc3Cl)c2c1=O the AC40 was > 35000 nM (inactive).
For CCc1ccc(-c2cn3nc(-c4ccccc4)cnc3n2)cc1, the AC40 was > 35000 nM (inactive).
CCc1cccc2c(C(=O)CN3C(=O)NC4(CCCCCC4)C3=O)c[nH]c12 was tested, and the AC40 was > 35000 nM (inactive).
For CCCCc1nc2cc(C(=O)N3CCN(c4nc(C)cnc4C)CC3)ccc2o1, the AC40 was > 35000 nM (inactive).
c1ccc2oc(CCc3nc4ccccc4o3)nc2c1 was tested, and the AC40 was > 35000 nM (inactive).

Reference: PubChem BioAssay AID540258 (Broad Institute, 2011)
